Measured values: the supplement of paper PMC10011410
± gives the standard deviation of the averaged measurements.

Experiments:
[1] = test system: U-2 OS; assay: relative cell count vs DMSO (cell painting) (fraction of DMSO control); higher = more cells remaining (less cytotoxic); details: 24 h
Procedure, shortened: (§1)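 Using 384-well plates holding about 1,500 U-2 OS cells per well, treatment was applied by pin tool for 24 h at 37 °C, generally at six 2-fold concentrations ranging from 20 μM to 625 nM. Staining with MitoTracker, concanavalin A, phalloidin, wheat germ agglutinin, Hoechst and SYTO 14 preceded Opera Phenix imaging and CellProfiler feature extraction against DMSO cells on the same plate. Activity score and cell count are both referenced to DMSO wells, the former as a Mahalanobis distance. Four replicate plates were averaged for every value.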

[2] = test system: U-2 OS; assay: total intracellular glutathione (GSH + GSSG) relative to DMSO (% of control); higher = more glutathione; details: 24 h
Procedure, shortened: (§2)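 Most compounds were tested at 20, 10 and 5 μM with 0.4% DMSO, applied by pin tool to U-2 OS cells 24 h after seeding at 750 per well in white low-volume 384-well plates, followed by 24 h at 37 °C. Separate plates were read by luminescence for total glutathione and GSSG (GSH/GSSG-Glo) or for viability (CellTiter-Glo). Background- and row/column-corrected data are shown relative to vehicle or as a GSH:GSSG ratio.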

[3] = test system: U-2 OS; assay: cell painting activity score (Mahalanobis distance from DMSO wells); higher = stronger morphological phenotype; details: 24 h
Procedure, shortened: as §1

[4] = test system: U-2 OS; assay: intracellular GSH:GSSG ratio (calculated); higher = more reduced glutathione pool; details: 24 h
Protocol: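 Intracellular glutathione in U-2 OS cells after 24 h compound treatment at 5, 10 and 20 uM (some at 40 and 80 uM). Total glutathione and GSSG were measured with the GSH/GSSG-Glo kit, and the GSH:GSSG ratio was calculated. Mean of five technical replicate plates.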

[5] = test system: U-2 OS; assay: AUC of culture confluence over time (live-cell imaging) (AUC (confluence % x time)); higher = more confluent culture (less growth inhibition)
Procedure, shortened: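 In 384-well plates, U-2 OS cells were seeded at 750 per well in F-12K medium containing 10% FBS. A pin tool added compounds 24 h after seeding, most at 20, 10 and 5 μM, along with 0.2% DMSO. Confluence was then followed at 37 °C on an Incucyte S3 (10x objective), with images every 4 h for up to 60 h. Values give the area under the confluence-versus-time curve.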

[6] = test system: U-2 OS; assay: cell viability (CellTiter-Glo) relative to DMSO (% of control); higher = more viable; details: 24 h
Procedure, shortened: as §2

SMILES	relative cell count ([1]; 0.625 µM)	relative cell count ([1]; 1.25 µM)	relative cell count ([1]; 2.5 µM)	relative cell count ([1]; 5 µM)	relative cell count ([1]; 10 µM)	relative cell count ([1]; 20 µM)	total intracellular glutathione ([2]; 5 µM)	total intracellular glutathione ([2]; 10 µM)	total intracellular glutathione ([2]; 20 µM)	cell painting activity score ([3]; 0.625 µM)	cell painting activity score ([3]; 1.25 µM)	cell painting activity score ([3]; 2.5 µM)	cell painting activity score ([3]; 5 µM)	cell painting activity score ([3]; 10 µM)	cell painting activity score ([3]; 20 µM)	intracellular GSH:GSSG ratio ([4]; 5 µM)	intracellular GSH:GSSG ratio ([4]; 10 µM)	intracellular GSH:GSSG ratio ([4]; 20 µM)	AUC of culture confluence over time ([5]; 5 µM)	AUC of culture confluence over time ([5]; 10 µM)	AUC of culture confluence over time ([5]; 20 µM)	cell viability ([6]; 5 µM)	cell viability ([6]; 10 µM)	cell viability ([6]; 20 µM)	total intracellular glutathione ([2]; 40 µM)	total intracellular glutathione ([2]; 80 µM)	intracellular GSH:GSSG ratio ([4]; 40 µM)	intracellular GSH:GSSG ratio ([4]; 80 µM)	cell viability ([6]; 40 µM)	cell viability ([6]; 80 µM)	relative cell count ([1]; 40 µM)	relative cell count ([1]; 80 µM)	cell painting activity score ([3]; 40 µM)	cell painting activity score ([3]; 80 µM)	AUC of culture confluence over time ([5]; 40 µM)	AUC of culture confluence over time ([5]; 80 µM)
C=CC(=O)Nc1cc(Nc2nccc(-c3cn(C)c4ccccc34)n2)c(OC)cc1N(C)CCN(C)C	0.982	0.951	0.964	0.897	0.773	0.363	86.9 ± 3.4	77.4 ± 3.5	50.4 ± 3.9	10.5	8.95	9.22	9.78	13.8	17.8	22.9	12.3	7.29	39	28.4	7	75.6 ± 3.2	55 ± 4	35 ± 2.5												
CO[C@H]1C[C@@H]2CC[C@@H](C)[C@@](O)(O2)C(=O)C(=O)N2CCCC[C@H]2C(=O)O[C@H]([C@H](C)C[C@@H]2CC[C@@H](O)[C@H](OC)C2)CC(=O)[C@H](C)/C=C(\C)[C@@H](O)[C@@H](OC)C(=O)[C@H](C)C[C@H](C)/C=C/C=C/C=C/1C	0.953	0.926	0.903	0.956	0.916	0.852	90.5 ± 5.3	93.7 ± 5.7	102 ± 7	11.4	12.3	12.1	10.8	12.1	11.9	25.7	24.7	24.9	33.6	34.2	34.8	87.3 ± 5	90.6 ± 2.9	80 ± 6.5												
CC1(C)CC[C@]2(C(=O)n3ccnc3)CC[C@]3(C)[C@H](C(=O)C=C4[C@@]5(C)C=C(C#N)C(=O)C(C)(C)[C@@H]5CC[C@]43C)[C@@H]2C1	0.329	0.22	0.121	0.0924	0.0552	0.0644	36.9 ± 4.2	38 ± 6.2	38.6 ± 5.8	17.6	23.5	35.7	33.9	32	26.6	3.45	4.45	0.635	16	14.8	13.9	43.9 ± 1.6	43.8 ± 5.2	94.4 ± 8.6												
O=C1CCC(=O)N1c1ccc(O)cc1	1.02	0.976	0.966	0.904	1.03	1.04	105 ± 13	87.4 ± 4.5	102 ± 5.2	4.12	3.43	3.81	3.52	4.26	2.95	43	32.2	56.3	48.1	42.4	43.3	107 ± 6.3	106 ± 7.5	105 ± 5.4												
COC(=O)[C@]1(C)CC[C@]2(C)CC[C@]3(C)C4=CC=C5C(=CC(=O)C(O)=C5C)[C@]4(C)CC[C@@]3(C)[C@@H]2C1	0.0681	0.0621	0.0626	0.0644	0.0539	0.117	9.07 ± 0.87	4.42 ± 1.3	3.06 ± 0.32	24.2	33.5	32.8	33.4	33.5	27.7	0.695	0.536		11.3	11.9	14.2	5.12 ± 0.81	1.29 ± 0.58	0.733 ± 0.056												
O=C1/C(=C/c2ccc(O)c(Br)c2)CCC/C1=C\c1ccc(O)c(Br)c1	1.01	1.02	0.982	0.904	0.96	0.55	113 ± 2.6	126 ± 4.8	120 ± 2.2	4.8	5.76	5.97	8.32	9.31	12.2	15.5	14	11.9	49.5			100 ± 4.4	95.1 ± 4.6	94.1 ± 5.6	119 ± 3.6	13.4 ± 2.5	9.48	3.73	88.5 ± 5.9	11.9 ± 2.3						
C[C@H]1CCC/C=C/[C@@H]2C[C@H](O)C[C@H]2[C@H](O)/C=C/C(=O)O1	0.653	0.645	0.645	0.629	0.562	0.479	54 ± 2.2	41.5 ± 18	45.2 ± 18	15.2	14.7	15.3	15.9	15.9	17.6	26.9	17.4	16.1	18.6	18.1	18.2	62.9 ± 3.7	64.5 ± 1.9	63.8 ± 3.9												
CC(C)C[C@H](NC(=O)[C@H](Cc1ccccc1)NC(=O)c1cnccn1)B(O)O	0.186	0.172	0.149	0.129	0.131	0.125	6.2 ± 0.76	6.01 ± 0.4	6.63 ± 0.68	28.4	29.8	29.3	30.7	31	29.8	2.45	1.97	1.1	16.9	15.6	15.1	6.79 ± 0.82	7.67 ± 1.1	7.65 ± 1												
Cc1cc2c(C(C)C)c(O)c(O)c(C=O)c2c(O)c1-c1c(C)cc2c(C(C)C)c(O)c(O)c(C=O)c2c1O	1.09	1.1	1.09	1.02	0.937	0.551	92.2 ± 3.2	70 ± 4.9	63.3 ± 3.2	3.83	4.24	4.3	5.05	15.5	17.8	16.4	15.8	7.02	48.5	36.2	32.6	96.4 ± 1.8	88.1 ± 5.2	68.2 ± 2.1	62.8 ± 3.7	18.2 ± 4.2	3.8	1.25	42.7 ± 11	5.12 ± 1.6	0.246	0.261	22.1	24.1	18.2	18.5
CCCC1(c2ccccc2)NC(=O)N(CC(=O)N(C)Cc2c(F)cccc2Cl)C1=O (centres undefined)	1.02	0.978	1.04	1.03	0.991	1.04	102 ± 4.9	104 ± 2.5	101 ± 3.9	4.41	4.87	5.72	6.63	7.72	8.18	20.7	26.8	22.5	53.9	48.4	48.7	101 ± 3.2	102 ± 2.8	100 ± 2.9												
C=CC(=O)Nc1cc2c(Nc3ccc(F)c(Cl)c3)ncnc2cc1OCCCN1CCOCC1	0.407	0.133	0.0844	0.0662	0.0483	0.019	69.5 ± 4.6	11.2 ± 1.2	4.36 ± 0.66	15.6	19.4	27.2	25.4	25.3	26.9	7.51	1.96	0.352	19.1	13.7	9.96	57.1 ± 4.1	6.54 ± 1.9	4.85 ± 1.7												
CCC(=O)N1CCN(c2ccc(-n3c(=O)ccc4cnc5ccc(-c6cnc7ccccc7c6)cc5c43)cc2C(F)(F)F)CC1	0.752	0.716	0.68	0.714	0.683	0.656	58.8 ± 4.2	58.6 ± 4.8	64 ± 3.3	12.8	12.6	12.4	13.4	13.2	14.2	16.1	15	13.4	26.9	27.2	26.1	66.4 ± 3.2	66.8 ± 3.4	61.4 ± 4												
CNC(=O)Nc1ccc2c(c1)[C@@]1(CC2)OC(=O)N(CC(=O)N(Cc2ccc(F)cc2)[C@@H](C)C(F)(F)F)C1=O	0.989	1.01	0.976	1.01	0.982	0.969	100 ± 8.6	122 ± 7.3	90.4 ± 4	4.88	6.13	4.26	5.02	5.83	4.92	20.4	29.9	16.2	45.6	49.6	44.7	105 ± 7.5	98.6 ± 12	103 ± 9.4												
COc1ccc(N2C(=O)CC(Sc3nnc(-c4ccccc4)o3)C2=O)cc1 (centres undefined)	1.1	1.07	1.16	1.08	1.1	0.796	97.4 ± 5.6	97.1 ± 17	20 ± 8	2.96	3.59	3.44	4.49	6.07	11.5	26.4	14.5	4.1	24.5	11.3	11.9	105 ± 6.2	91.8 ± 19	9.21 ± 6.6												
COc1ccc(N(C(=O)CCl)C(C(=O)NCCc2ccccc2)c2cccs2)cc1Cl (centres undefined)	0.916	0.7	0.657	0.209	0.198	0.29	49.1 ± 4.8	23.5 ± 6.2	2.61 ± 0.21	9.81	11	11.4	14.4	32.8	32.2	4.03	5.85		15.9	17.6	16.4	64.5 ± 5.7	36.8 ± 12	8.23 ± 3.5												
